This is an account of results in the RepoRT retention time repository.

Structures are written as SMILES.

This data set in a line: HILIC, Waters ACQUITY UPLC BEH Amide, 100 × 2.1 mm, 1.7 µm; A: water + 0.125% formic acid + 10 mM ammonium formate; B: 5% water + 95% acetonitrile + 0.125% formic acid + 10 mM ammonium formate; gradient (min/%B) 0/100 2/100 7.7/70 9.5/40 10.25/30 12.75/100 17/100. The conditions noted are these: stereoisomer not certain.
Take `CN1CCN2c3ncccc3Cc3ccccc3C2C1` (centres undefined) [Mirtazapine]: the LC retention time was 3.08 min.
With `CC(C)C(NC(=O)C(N)CCCCN)C(=O)O` (centres undefined) [Lys-Val] the figure was 9.38 min; with `CSCCC(NC(C)=O)C(=O)O` (centres undefined) [N-Acetylmethionine], 3.23 min; with `Nc1ncnc2c1ncn2C1OC(CO)CC1O` (centres undefined) [Cordycepin], 3.54 min.
As to `CC(=O)NCCC(=O)NC(Cc1cnc[nH]1)C(=O)O` [N-Acetyl-L-carnosine], the LC retention time was determined as 8.35 min.
With `CC(C)(O)C1C2OC(=O)C1C1(O)CC3OC34C(=O)OC2C14C` (centres undefined) [Picrotin] the figure was 1.21 min; with `NC(CO)C(=O)O` (centres undefined) [Serine], 8.73 min; with `OCCc1c[nH]c2ccc(O)cc12` [5-Hydroxytryptophol], 5.93 min.
Under `CC(CCC(=O)O)C1CCC2C3C(=O)CC4CC(=O)CCC4(C)C3CC(=O)C12C` (centres undefined) [Dehydrocholic acid] stands 1.16 min; under `CN=C1CN(O)C(c2ccccc2)=c2cc(Cl)ccc2=N1` [Chlordiazepoxide], 1.35 min; under `CN1C2CCC1C(C(=O)O)C(OC(=O)c1ccccc1)C2` (centres undefined) [Benzoylecgonine], 3.63 min.
With `O=C1CC(c2ccc(O)cc2)Oc2cc(O)ccc21` (centres undefined) [Liquiritigenin] the figure was 1.3 min; with `CC(=O)Nc1ccccc1` [Acetanilide], 1.11 min.
As to `CC[N+](C)(CC)CCOC(=O)C(O)(c1ccccc1)C1CCCCC1` (centres undefined) [Oxyphenonium], the LC retention time turned out to be 2.01 min.
Consider `c1ccc2scnc2c1` [Benzothiazole], for which the LC retention time worked out at 1.11 min.
Under `CC(C)CC(NC(=O)CN)C(=O)O` (centres undefined) [Glycyl-leucine] stands 8.14 min; under `NCCO` [Ethanolamine], 7.15 min; under `CSCCC(N)C(=O)O` (centres undefined) [Methionine], 7.37 min.
As to `O=C(NCCN1CCOCC1)c1ccc(Cl)cc1` [Moclobemide], the LC retention time is 2.03 min.
With `NC12CC3CC(CC(C3)C1)C2` [Amantadine] the figure was 4.88 min.
Under `CCCCCCCCCCCCCCC(O)C(O)C(N)CO` (centres undefined) [Phytosphingosine] stands 5.18 min.
As for `CC(N)C(=O)NC(CCC(N)=O)C(=O)O` (centres undefined) [Ala-Gln], the LC retention time worked out at 9.11 min.
As for `COC(=O)C(N)Cc1ccc(O)cc1` (centres undefined) [Methyltyrosinate], the LC retention time is 4.23 min.
With `CC(=O)C1CCC2C3CCC4=CC(=O)CCC4(C)C3CCC12C` (centres undefined) [Progesterone], the LC retention time was 0.97 min.
Under `Cn1c(=O)ccn(C2OC(CO)C(O)C2O)c1=O` (centres undefined) [3-Methyluridine] stands 1.12 min; under `CCN1CC(CCN2CCOCC2)C(c2ccccc2)(c2ccccc2)C1=O` (centres undefined) [Doxapram], 1.64 min; under `O=C(O)CCCCCO` [6-Hydroxycaproic acid], 1.34 min.
With `CN1CCN(C2=Nc3ccccc3Oc3ccc(Cl)cc32)CC1` [Loxapine] the figure was 2.18 min; with `CC(=O)NC(CCC(=O)O)C(=O)O` (centres undefined) [N-Acetylglutamic acid], 7.67 min.
Under `NC(=O)CCC(NC(=O)C(N)CCC(=O)O)C(=O)O` (centres undefined) [Glu-Gln] stands 9.6 min; under `Cc1ncc(CO)c(C=O)c1O` [Pyridoxal], 2.18 min; under `NC(Cn1ccc(=O)[nH]c1=O)C(=O)O` (centres undefined) [Willardiine], 8.72 min.
On to `CCOC(=O)C1=C(C)NC(C)=C(C(=O)OCC)C1c1ccccc1C=CC(=O)OC(C)(C)C` [Lacidipine], for which the LC retention time was 0.94 min.
With `CC12Cc3cn[nH]c3CC1CCC1C2CCC2(C)C1CCC2(C)O` (centres undefined) [Stanozolol] the figure was 1.19 min.
In the case of `CN1C2CCC1CC(OC(=O)C(CO)c1ccccc1)C2` (centres undefined) [Atropine], the LC retention time turned out to be 4.32 min.
Under `CCCCCCCCOC(=O)c1ccccc1C(=O)OCCCCCCCC` [Dioctyl Phthalate] stands 0.96 min; under `O=C(OC1CC2CC3CC(C1)N2CC3=O)c1c[nH]c2ccccc12` (centres undefined) [Dolasetron], 1.9 min; under `CC1CNC(=O)NC1=O` (centres undefined) [5,6-Dihydro-5-methyluracil], 1.57 min.
Take `COc1c2occc2cc2ccc(=O)oc12` [Xanthotoxin]: the LC retention time is 1.04 min.
In the case of `Nc1cc(CC(N)C(=O)O)ccc1O` (centres undefined) [3-Aminotyrosine], the LC retention time is 8.06 min.
With `CCC(=O)NS(=O)(=O)c1ccc(-c2c(-c3ccccc3)noc2C)cc1` [Parecoxib], the LC retention time was found to be 0.98 min.
Under `CC(C)(CO)C(O)C(=O)NCCC(=O)O` (centres undefined) [Pantothenic acid] stands 3.5 min; under `Nc1c(O)cccc1C(=O)CC(N)C(=O)O` (centres undefined) [3-Hydroxykynurenine], 7.35 min; under `COC1C(O)C(CO)OC1n1cnc2c(=O)[nH]c(N)nc21` (centres undefined) [2'-O-Methylguanosine], 5.72 min.
Regarding `CNC(=C[N+](=O)[O-])NCCSCc1ccc(CN(C)C)o1` [Ranitidine], the LC retention time was 5.18 min.
Under `CC(C)CCCC(C)C1CCC2C3CC=C4CC(OC(=O)NCCN(C)C)CCC4(C)C3CCC12C` (stereo not drawn) [3-beta-Cholest-5-en-3-yl [2-(dimethylamino)ethyl]carbamate] stands 2.34 min; under `CCCCCC=CCC=CCCCCCCCC(=O)OC(CC(=O)[O-])C[N+](C)(C)C` (centres undefined) [Linoleoylcarnitine], 3.1 min.
Take `CN(CCOc1ccc(NS(C)(=O)=O)cc1)CCc1ccc(NS(C)(=O)=O)cc1` [Dofetilide]: the LC retention time amounted to 3.38 min.
Under `CC(C)CC(NC(=O)C(COC(C)(C)C)NC(=O)C(Cc1ccc(O)cc1)NC(=O)C(CO)NC(=O)C(Cc1c[nH]c2ccccc12)NC(=O)C(Cc1cnc[nH]1)NC(=O)C1CCC(=O)N1)C(=O)NC(CCCN=C(N)N)C(=O)N1CCCC1C(=O)NNC(N)=O` (centres undefined) [Goserelin] stands 7.83 min; under `O=C1CCNC(=O)N1` [5,6-Dihydrouracil], 1.77 min.
Under `CC(C)CN` [Isobutylamine] stands 5.04 min; under `NC(CCS)C(=O)O` (centres undefined) [Homocysteine], 9.58 min.
Under `CC12CCC3C(CC=C4CC(O)CCC43C)C1CCC2=O` (centres undefined) [Dehydroepiandrosterone] stands 1.03 min; under `NCCCNCCCCNCCCN` [Spermine], 7.24 min.
On to `CC(=O)OCC(CCn1cnc2cnc(N)nc21)COC(C)=O` [Famciclovir], for which the LC retention time was determined as 1.38 min.
With `NC(=O)NCCCC(N)C(=O)O` (centres undefined) [Citrulline] the figure was 8.74 min; with `CC12CCC(=O)C=C1CCC1C2C(=O)CC2(C)C1CCC2(O)C(=O)CO` (centres undefined) [Cortisone], 1.29 min.
For `CC(NC(=O)C(N)CCCN=C(N)N)C(=O)O` (centres undefined) [Arg-Ala], the LC retention time was determined as 9.66 min.
As to `Nc1c2c(nc3c1CCC3)CCCC2` [Ipidacrine], the LC retention time was determined as 3.33 min.
As for `CCCCC(=O)N(Cc1ccc(-c2ccccc2-c2nn[nH]n2)cc1)C(C(=O)O)C(C)C` (centres undefined) [Valsartan], the LC retention time turned out to be 1.69 min.
With `CC(=O)N1C(=O)C(=O)c2ccccc21` [Acetylisatin] the figure was 2.4 min; with `COc1ccc(C=O)cc1OC` [3,4-Dimethoxybenzaldehyde], 1.08 min.
For `Nc1[nH]c(=O)ncc1CO` [5-Hydroxymethylcytosine], the LC retention time was determined as 6.9 min.
Under `CC(=O)N1CCCCCC1=O` [N-Acetylcaprolactam] stands 2.3 min.
In the case of `O=C1Nc2ccc(Cl)cc2C(c2ccccc2Cl)=NC1O` (centres undefined) [Lorazepam], the LC retention time was determined as 1.33 min.
With `CCCCCCCCCCCCCCCC(O)C(N)CO` (centres undefined) [Dihydrosphingosine] the figure was 4.47 min; with `CC(C)c1nc(CN(C)C(=O)NC(C(=O)NC(Cc2ccccc2)CC(O)C(Cc2ccccc2)NC(=O)OCc2cncs2)C(C)C)cs1` (centres undefined) [Ritonavir], 1.15 min; with `Cc1ccc(C(C)C)c(O)c1` [Thymol], 1.53 min.
With `CNNCc1ccc(C(=O)NC(C)C)cc1` [Procarbazine] the figure was 4.61 min; with `CN1C(=O)CN=C(c2ccccc2)c2cc([N+](=O)[O-])ccc21` [Nimetazepam], 0.98 min; with `CNC(Cc1ccc(O)cc1)C(=O)O` (centres undefined) [N-Methyltyrosine], 6.79 min.
Under `COCCCOc1ccnc(CS(=O)c2nc3ccccc3[nH]2)c1C` (centres undefined) [Rabeprazole] stands 2.44 min.
For `COc1ccc2c3c1OC1CC(O)C=CC31CCN(C)C2` (centres undefined) [Galanthamine], the LC retention time stood at 4.62 min.
Under `CN1CCC23CCCCC2C1Cc1ccc(O)cc13` (centres undefined) [Dextrorphan] stands 3.87 min; under `CC(=O)NC(CCCN=C(N)N)C(=O)O` [N-.alpha.-Acetyl-L-arginine], 8.16 min.
As to `CC(c1cc2ccccc2s1)N(O)C(N)=O` (centres undefined) [Zileuton], the LC retention time stood at 1.23 min.
Under `c1ccncc1` [Pyridine] stands 6.63 min; under `COc1ccccc1OCCNCC(O)COc1cccc2[nH]c3ccccc3c12` (centres undefined) [Carvedilol], 3.17 min.
With `CN=C(NC)NCCCC(N)C(=O)O` (centres undefined) [SDMA] the figure was 8.49 min.
Under `OCc1cc(C(O)CNCCCCCCOCCCCc2ccccc2)ccc1O` (centres undefined) [Salmeterol] stands 4.75 min; under `CCCCCCCCCCCCCCCC(=O)OC(CO)CO` [2-Palmitoylglycerol], 0.99 min.
As for `N#Cc1ccc(C(c2ccc(C#N)cc2)n2cncn2)cc1` [Letrozol], the LC retention time worked out at 0.98 min.
With `CNCC(=O)O` [Sarcosine] the figure was 7.82 min; with `COc1cc2nc(N(C)CCCNC(=O)C3CCCO3)nc(N)c2cc1OC` (centres undefined) [Alfuzosin], 4.29 min.
